Type in all cases: biochemical
In test [1] the target is KAT7+BRPF1+EAF6+ING5 4 protein complex (Homo sapiens (Human), UniProt O95251). Briefly: KAT7 BRPF1 assay (SAMDI-MS acetylation of H3 1-21 peptide). The settings on record: Morrison equation fit; replicate number in parentheses.
The next test concerns the target KAT6A Full length enzyme (Homo sapiens (Human), UniProt Q92794). Briefly: KAT6A assay (SAMDI-MS acetylation of H3 1-21 peptide). The settings on record: Morrison equation fit; replicate number in parentheses; read-out: KAT6A Ki (nM) (replicate number).
The target of the next test is KAT5 Full length enzyme (Homo sapiens (Human), UniProt Q92993). The test can be described thus: KAT5 assay (SAMDI-MS acetylation of H4 1-21 peptide). The settings on record: Morrison equation fit; replicate number in parentheses; read-out: KAT5 Ki (nM) (replicate number).
Test [2] addresses KAT7+JADE1+EAF6+ING5 4 protein complex (Homo sapiens (Human), UniProt O95251). The test can be described thus: KAT7 JADE1 assay (SAMDI-MS acetylation of H3 1-21 peptide). The settings on record: Morrison equation fit; replicate number in parentheses; read-out: KAT7 JADE1 Ki (nM) (replicate number).
Test [3] has as its target KAT7+BRPF2+EAF6+ING5 4 protein complex (Homo sapiens (Human), UniProt O95251). Briefly: KAT7 BRPF2 assay (SAMDI-MS acetylation of H3 1-21 peptide). The settings on record: Morrison equation fit; replicate number in parentheses; read-out: KAT7 BRPF2 Ki (nM) (replicate number).
The target of a further test is KAT8 Full length enzyme (Homo sapiens (Human), UniProt Q9H7Z6). The test can be described thus: KAT8 assay (SAMDI-MS acetylation of H3 1-21 peptide). The settings on record: Morrison equation fit; replicate number in parentheses; read-out: KAT8 Ki (nM) (replicate number).
Chain of KAT8 Full length enzyme (Q9H7Z6 whole entry): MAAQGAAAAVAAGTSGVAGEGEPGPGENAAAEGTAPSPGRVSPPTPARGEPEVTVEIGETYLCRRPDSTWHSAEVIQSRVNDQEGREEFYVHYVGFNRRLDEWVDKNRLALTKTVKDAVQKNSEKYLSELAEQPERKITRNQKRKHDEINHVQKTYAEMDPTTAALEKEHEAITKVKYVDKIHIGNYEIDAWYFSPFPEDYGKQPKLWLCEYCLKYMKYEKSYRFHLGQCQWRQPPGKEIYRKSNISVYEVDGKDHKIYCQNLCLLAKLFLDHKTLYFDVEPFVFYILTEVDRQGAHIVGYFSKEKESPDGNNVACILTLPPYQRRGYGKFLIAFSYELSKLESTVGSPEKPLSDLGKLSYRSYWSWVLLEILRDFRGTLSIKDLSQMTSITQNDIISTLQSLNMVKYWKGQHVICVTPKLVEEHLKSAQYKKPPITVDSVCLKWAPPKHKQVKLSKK

Chain of KAT6A Full length enzyme (Q92794 other isoform, or with tags, fused parts or gaps): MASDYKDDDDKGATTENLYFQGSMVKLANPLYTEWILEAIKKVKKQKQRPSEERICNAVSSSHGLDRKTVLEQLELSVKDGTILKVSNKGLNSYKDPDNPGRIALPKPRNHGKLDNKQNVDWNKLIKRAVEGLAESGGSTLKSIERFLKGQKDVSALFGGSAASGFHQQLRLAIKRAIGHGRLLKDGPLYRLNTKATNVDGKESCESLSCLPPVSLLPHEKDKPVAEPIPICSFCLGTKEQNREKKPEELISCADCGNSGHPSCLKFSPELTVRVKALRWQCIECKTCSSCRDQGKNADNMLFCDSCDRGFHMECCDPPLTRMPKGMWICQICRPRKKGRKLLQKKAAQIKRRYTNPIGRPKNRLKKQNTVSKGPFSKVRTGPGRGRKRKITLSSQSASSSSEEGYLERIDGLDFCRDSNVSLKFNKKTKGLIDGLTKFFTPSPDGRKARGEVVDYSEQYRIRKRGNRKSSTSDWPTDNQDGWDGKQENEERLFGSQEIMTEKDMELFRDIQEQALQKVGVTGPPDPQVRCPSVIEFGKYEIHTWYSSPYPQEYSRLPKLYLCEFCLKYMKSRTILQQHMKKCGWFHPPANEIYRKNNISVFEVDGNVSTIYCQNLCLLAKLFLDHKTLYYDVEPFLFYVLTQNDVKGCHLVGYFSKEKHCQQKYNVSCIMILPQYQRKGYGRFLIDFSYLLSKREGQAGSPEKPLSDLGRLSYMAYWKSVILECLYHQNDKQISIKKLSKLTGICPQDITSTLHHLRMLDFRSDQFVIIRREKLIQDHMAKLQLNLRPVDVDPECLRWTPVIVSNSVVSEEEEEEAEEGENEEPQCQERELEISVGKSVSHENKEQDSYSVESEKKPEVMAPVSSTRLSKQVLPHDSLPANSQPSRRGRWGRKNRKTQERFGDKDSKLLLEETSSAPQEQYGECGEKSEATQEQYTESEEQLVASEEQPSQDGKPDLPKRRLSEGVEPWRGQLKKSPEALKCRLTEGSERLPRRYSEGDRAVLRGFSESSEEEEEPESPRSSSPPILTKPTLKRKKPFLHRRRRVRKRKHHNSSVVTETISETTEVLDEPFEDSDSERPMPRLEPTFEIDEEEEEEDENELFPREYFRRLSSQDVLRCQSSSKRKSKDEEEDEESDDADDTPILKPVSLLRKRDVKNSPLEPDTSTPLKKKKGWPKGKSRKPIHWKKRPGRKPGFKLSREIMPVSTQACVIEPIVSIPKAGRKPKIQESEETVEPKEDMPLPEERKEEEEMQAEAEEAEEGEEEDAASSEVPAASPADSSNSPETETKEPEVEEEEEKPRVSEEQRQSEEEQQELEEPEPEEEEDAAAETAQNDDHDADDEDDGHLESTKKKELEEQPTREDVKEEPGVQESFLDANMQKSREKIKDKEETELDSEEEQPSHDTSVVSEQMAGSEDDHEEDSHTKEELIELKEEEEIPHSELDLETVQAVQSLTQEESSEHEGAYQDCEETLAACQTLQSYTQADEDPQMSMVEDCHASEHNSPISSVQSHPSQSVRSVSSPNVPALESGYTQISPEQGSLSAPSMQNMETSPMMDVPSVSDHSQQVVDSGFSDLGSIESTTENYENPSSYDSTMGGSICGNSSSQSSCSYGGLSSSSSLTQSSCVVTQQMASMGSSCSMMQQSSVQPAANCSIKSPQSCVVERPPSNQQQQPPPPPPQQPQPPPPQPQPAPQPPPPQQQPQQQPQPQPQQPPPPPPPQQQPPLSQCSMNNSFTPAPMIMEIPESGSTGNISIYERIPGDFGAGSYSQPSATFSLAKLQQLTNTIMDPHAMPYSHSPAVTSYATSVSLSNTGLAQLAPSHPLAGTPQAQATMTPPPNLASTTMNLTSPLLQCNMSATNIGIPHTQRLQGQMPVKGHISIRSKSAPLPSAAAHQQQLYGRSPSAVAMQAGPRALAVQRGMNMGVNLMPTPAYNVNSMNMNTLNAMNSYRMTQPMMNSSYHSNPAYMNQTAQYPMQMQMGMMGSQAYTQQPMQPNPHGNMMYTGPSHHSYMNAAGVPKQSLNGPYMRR
Chain of KAT5 Full length enzyme (Q92993 whole entry): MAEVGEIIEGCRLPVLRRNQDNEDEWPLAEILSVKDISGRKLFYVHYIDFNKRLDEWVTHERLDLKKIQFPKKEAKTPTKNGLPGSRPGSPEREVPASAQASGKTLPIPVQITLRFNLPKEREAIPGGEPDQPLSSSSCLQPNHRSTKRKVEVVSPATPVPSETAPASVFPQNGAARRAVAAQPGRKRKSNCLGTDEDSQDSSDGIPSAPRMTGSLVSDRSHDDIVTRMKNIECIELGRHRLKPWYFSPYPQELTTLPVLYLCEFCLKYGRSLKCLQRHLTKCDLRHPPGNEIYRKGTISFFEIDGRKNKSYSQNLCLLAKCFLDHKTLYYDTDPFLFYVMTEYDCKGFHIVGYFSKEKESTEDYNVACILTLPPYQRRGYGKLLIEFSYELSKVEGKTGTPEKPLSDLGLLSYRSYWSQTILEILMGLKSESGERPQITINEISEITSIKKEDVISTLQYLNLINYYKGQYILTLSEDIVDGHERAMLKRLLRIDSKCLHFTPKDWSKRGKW

Regarding `COc1cccc(OC)c1S(=O)(=O)Nc1noc2cc(Nc3cc[nH]n3)cc(OC)c12` [Example 01, 2,6-Dimethoxy-N-{4-methoxy-6-[(1H-pyrazol-3-yl)amino]-1,2-benzoxazol-3-yl}benzene-1-sulfonamide], the Ki is 37.7 nM in test [1]; 0.4 nM at KAT6A Full length enzyme; 441 nM at KAT5 Full length enzyme; 131 nM in test [2]; 37 nM in test [3]; 455 nM at KAT8 Full length enzyme.
Regarding `CCc1cc(Nc2cc3onc(NS(=O)(=O)c4c(OC)cccc4OC)c3cc2OC)[nH]n1` [Example 02, N-{6-[(3-ethyl-1H-pyrazol-5-yl)amino]-5-methoxy-1,2-benzoxazol-3-yl}-2,6-dimethoxybenzene-1-sulfonamide], the Ki in test [1] is 3.5 nM; at KAT6A Full length enzyme it was 1.1 nM; at KAT5 Full length enzyme it was 305 nM; in test [2] it was 19.5 nM; in test [3] it was 4.8 nM; on KAT8 Full length enzyme, 2270 nM.
For `COc1cc2c(NS(=O)(=O)c3c(OC)cccc3OC)noc2cc1Nc1cc[nH]n1` [Example 03, 2,6-Dimethoxy-N-{5-methoxy-6-[(1H-pyrazol-3-yl)amino]-1,2-benzoxazol-3-yl}benzene-1-sulfonamide], the Ki is 40.6 nM in test [1]; 0.5 nM on KAT6A Full length enzyme; 138 nM on KAT5 Full length enzyme; 105 nM in test [2]; 43.6 nM in test [3]; 861 nM at KAT8 Full length enzyme.
As to `COc1cc2c(NS(=O)(=O)c3c(OC)cccc3OC)noc2cc1Nc1ccn(C)n1` [Example 04, 2,6-Dimethoxy-N-{5-methoxy-6-[(1-methyl-1H-pyrazol-3-yl)amino]-1,2-benzoxazol-3-yl}benzene-1-sulfonamide], the Ki in test [1] was 67.2 nM; at KAT6A Full length enzyme, 0.7 nM; at KAT5 Full length enzyme, 367 nM; in test [2] it was 251 nM; in test [3] it was 57.2 nM; at KAT8 Full length enzyme, 1230 nM.
Consider `COc1cc2c(NS(=O)(=O)c3ccccc3OC)noc2cc1Nc1cc(C)n[nH]1` [Example 06, 2-Methoxy-N-{5-methoxy-6-[(3-methyl-1H-pyrazol-5-yl)amino]-1,2-benzoxazol-3-yl}benzene-1-sulfonamide], for which the inhibitory constant (Ki) is 47.1 nM in test [1]; 0.8 nM at KAT6A Full length enzyme; 300 nM on KAT5 Full length enzyme; 148 nM in test [2]; 50.5 nM in test [3]; more than 13000 nM on KAT8 Full length enzyme.
With `COc1ccccc1S(=O)(=O)Nc1noc2cc(Nc3cc[nH]n3)cc(OC)c12` [Example 09, 2-methoxy-N-{4-methoxy-6-[(1H-pyrazol-3-yl)amino]-1,2-benzoxazol-3-yl}benzene-1-sulfonamide], the Ki in test [1] stood at 51.8 nM; at KAT6A Full length enzyme, 0.8 nM; on KAT5 Full length enzyme, 642 nM; in test [2] it was 202 nM; in test [3] it was 90.7 nM; at KAT8 Full length enzyme it was 1190 nM.
Regarding `COc1cccc(OC)c1S(=O)(=O)Nc1noc2cc(Nc3ncc[nH]3)cc(OC)c12` [Example 15, N-{6-[(1H-imidazol-2-yl)amino]-4-methoxy-1,2-benzoxazol-3-yl}-2,6-dimethoxybenzene-1-sulfonamide], the Ki in test [1] was determined as 67.8 nM; on KAT6A Full length enzyme, 1.2 nM; at KAT5 Full length enzyme, 1330 nM; in test [2], 256 nM; in test [3], 100 nM; at KAT8 Full length enzyme, 1320 nM.
As to `COc1cc2c(NS(=O)(=O)c3ccccc3OC)noc2cc1Nc1cc[nH]n1` [Example 22, 2-methoxy-N-{5-methoxy-6-[(1H-pyrazol-3-yl)amino]-1,2-benzoxazol-3-yl}benzene-1-sulfonamide], the Ki in test [1] came out at 108 nM; on KAT6A Full length enzyme, 0.9 nM; at KAT5 Full length enzyme, 488 nM; in test [2], 300 nM; in test [3], 186 nM; on KAT8 Full length enzyme, 1700 nM.
With `COc1cc2c(NS(=O)(=O)c3ccc(C)cc3OC)noc2cc1Nc1cc[nH]n1` [Example 23, 2-methoxy-N-{5-methoxy-6-[(1H-pyrazol-3-yl)amino]-1,2-benzoxazol-3-yl}-4-methylbenzene-1-sulfonamide], the Ki turned out to be 36.7 nM in test [1]; 0.9 nM at KAT6A Full length enzyme; 418 nM on KAT5 Full length enzyme; 212 nM in test [2]; 95.2 nM in test [3]; 1060 nM at KAT8 Full length enzyme.
Take `COc1cc2c(NS(=O)(=O)c3cc(C)ccc3OC)noc2cc1Nc1cc[nH]n1` [Example 24, 2-methoxy-N-{5-methoxy-6-[(1H-pyrazol-3-yl)amino]-1,2-benzoxazol-3-yl}-5-methylbenzene-1-sulfonamide]: the Ki is 88.5 nM in test [1]; 0.9 nM on KAT6A Full length enzyme; 236 nM on KAT5 Full length enzyme; 285 nM in test [2]; 182 nM in test [3]; 440 nM at KAT8 Full length enzyme.
For `COc1cc2c(NS(=O)(=O)c3cc(C(C)C)c(C)cc3OC)noc2cc1Nc1cc[nH]n1` [Example 26, 2-methoxy-N-{5-methoxy-6-[(1H-pyrazol-3-yl)amino]-1,2-benzoxazol-3-yl}-4-methyl-5-(propan-2-yl)benzene-1-sulfonamide], the Ki came to 14.7 nM in test [1]; 0.6 nM on KAT6A Full length enzyme; 189 nM at KAT5 Full length enzyme; 206 nM in test [2]; 71.5 nM in test [3]; 154 nM on KAT8 Full length enzyme.
On to `COc1cc2c(NS(=O)(=O)c3ccc(Cl)cc3OC)noc2cc1Nc1cc[nH]n1` [Example 27, 4-chloro-2-methoxy-N-{5-methoxy-6-[(1H-pyrazol-3-yl)amino]-1,2-benzoxazol-3-yl}benzene-1-sulfonamide], for which the Ki in test [1] amounted to 74.7 nM; at KAT6A Full length enzyme, 1.3 nM; at KAT5 Full length enzyme it was 390 nM; in test [2], 220 nM; in test [3], 124 nM; on KAT8 Full length enzyme, 893 nM.
On to `CCOc1ccccc1S(=O)(=O)Nc1noc2cc(Nc3cc[nH]n3)c(OC)cc12` [Example 28, 2-ethoxy-N-{5-methoxy-6-[(1H-pyrazol-3-yl)amino]-1,2-benzoxazol-3-yl}benzene-1-sulfonamide], for which the Ki in test [1] was 97.1 nM; at KAT6A Full length enzyme it was 1.2 nM; at KAT5 Full length enzyme it was 630 nM; in test [2], 290 nM; in test [3], 141 nM; at KAT8 Full length enzyme, 3110 nM.
For the compound `COc1cc2c(NS(=O)(=O)c3c(OC)cccc3OC(C)C)noc2cc1Nc1cc[nH]n1` [Example 32, 2-methoxy-N-{5-methoxy-6-[(1H-pyrazol-3-yl)amino]-1,2-benzoxazol-3-yl}-6-[(propan-2-yl)oxy]benzene-1-sulfonamide], the Ki in test [1] is 89.7 nM; on KAT5 Full length enzyme it was 2740 nM; in test [2] it was 361 nM; in test [3], 79.5 nM; at KAT8 Full length enzyme it was more than 16300 nM.
Turning to `COC(=O)c1cc(Nc2cc3onc(NS(=O)(=O)c4c(OC)cccc4OC)c3cc2OC)[nH]n1` [Example 55, methyl 5-({3-[(2,6-dimethoxybenzene-1-sulfonyl)amino]-5-methoxy-1,2-benzoxazol-6-yl}amino)-1H-pyrazole-3-carboxylate], the Ki in test [1] came to 199 nM; at KAT6A Full length enzyme, 2.4 nM; in test [2], 663 nM; in test [3], 147 nM.
Regarding `COc1cc2c(NS(=O)(=O)c3c(OC)cc(CN4CC[C@@H](F)C4)cc3OC)noc2cc1Nc1cc(C2CC2)n[nH]1` [Example 201, N-{6-[(3-cyclopropyl-1H-pyrazol-5-yl)amino]-5-methoxy-1,2-benzoxazol-3-yl}-4-{[(3R)-3-fluoropyrrolidin-1-yl]methyl}-2,6-dimethoxybenzene-1-sulfonamide], the Ki came to 3.4 nM in test [1]; 0.6 nM on KAT6A Full length enzyme; 192 nM at KAT5 Full length enzyme; 4.1 nM in test [2]; 2190 nM on KAT8 Full length enzyme.
`COc1cc2c(NS(=O)(=O)c3c(OC)cc(CN4CC(F)(F)C4)cc3OC)noc2cc1Nc1cc(C2CC2)n[nH]1` [Example 203, N-{6-[(3-cyclopropyl-1H-pyrazol-5-yl)amino]-5-methoxy-1,2-benzoxazol-3-yl}-4-[(3,3-difluoroazetidin-1-yl)methyl]-2,6-dimethoxybenzene-1-sulfonamide]: the Ki in test [1] came out at 3 nM; on KAT6A Full length enzyme, 0.4 nM; on KAT5 Full length enzyme, 21.7 nM; in test [2], 4.3 nM; on KAT8 Full length enzyme, 1220 nM.
With `COc1cc2c(NS(=O)(=O)c3c(OC)cc(-c4nccc(CN(C)C)n4)cc3OC)noc2cc1Nc1cc(C2CC2)n[nH]1` [Example 222, N-{6-[(3-cyclopropyl-1 H-pyrazol-5-yl)amino]-5-methoxy-1,2-benzoxazol-3-yl}-4-{4-[(dimethylamino)methyl]pyrimidin-2-yl}-2,6-dimethoxybenzene-1-sulfonamide], the Ki came out at 4 nM in test [1]; 0.5 nM at KAT6A Full length enzyme; 27.9 nM on KAT5 Full length enzyme; 4.5 nM in test [2]; 958 nM on KAT8 Full length enzyme.
The matching figures for `COc1cc2c(NS(=O)(=O)c3c(OC)cc(-c4ncc(N5CCN(C)CC5)cn4)cc3OC)noc2cc1Nc1cc(C2CC2)n[nH]1` [Example 226, N-{6-[(3-cyclopropyl-1 H-pyrazol-5-yl)amino]-5-methoxy-1,2-benzoxazol-3-yl}-2,6-dimethoxy-4-[5-(4-methylpiperazin-1-yl)pyrimidin-2-yl]benzene-1-sulfonamide]: 2.4 nM, 0.3 nM, 11.6 nM, 3 nM and 572 nM.

Broadly, the Ki is the equilibrium dissociation constant of an inhibitor or competing ligand from its target.

For the origin of these results see US20250122183A1 (Pfizer Inc., priority 2023, published 2025).
